Source: patent US9669050B2, “Composition for prevention or treatment of hyperlipidemia, fatty liver or obesity” (BENEBIOSIS CO., LTD., priority 2008, dated 2017)

Tests used:
[1] = tested on: high-fat diet C56BL/6 male mice; experiment: Improvement of fatty liver in high-fat diet mice (dissection, observation); format: in vivo, mouse; conditions: peritoneally administered, FIG. 4
Text: In order to investigate 3′-SL's effect of improving fatty liver, high-fat diet C56BL/6 male mice were dissected and the liver and other organs were observed.

[2] = tested on: high-fat diet C56BL/6 male mice; experiment: Body weight change and food intake of high-fat diet mice; format: in vivo, mouse; conditions: for Weight increase / Final weight: peritoneal injection every day
Description: 4 week-old C56BL/6 male mice were purchased from Dooyeul Biotech (Korea). Water was allowed freely and commercially available pellet feed (Dooyeul Biotech, Korea) was given for a week. The mice were grouped into six groups (six per each group) as follows: ND, normal diet group (normal group); HD, high-fat (60% fat) diet [purchased from Research Diets (New Brunswick, USA)] group (control group); and HD+SL (0.1 mg/kg), HD+SL (0.5 mg/kg), HD+SL (1.0 mg/kg) and HD+SL (5.0 mg/kg), high-fat diet groups treated with sialyllactose (SL, Sigma). Sialyllactose or PBS was administered every day by peritoneal injection. The mice were kept in cages for 50 days and sacrificed after fasting for 12 hours. Food intake and body weight change were measured every 7 days. 3′-Sialyllactose (3′-N-acetylneuraminyl-D-lactose, 3′-sialyl-D-lactose or α-NeuNAc-(2→3)-β-D-Gal-(1→4)-D-Glc) and 6′-sialyllactose (6′-N-acetylneuraminyl-lactose, 6′-sialyl-D-lactose or α-NeuNAc-(2→6)-β-D-Gal-(1→4)-D-Glc) were purchased from Sigma-Aldrich.

high-fat diet SD rats [3] = experiment: Serum lipid levels in high-fat diet rats; format: in vivo, rat; conditions: HD + SL 1 mg/kg
Description: (§1) Blood was taken from the liver of the C56BL/6 male mice. The blood was coagulated, centrifuged for 15 minutes at 13,000 rpm, and kept at −20° C. until serum analysis. High-density lipoprotein (HDL)-cholesterol level was measured using an HDL kit (YD Diagnostics, Korea). Triglyceride (TG) was analyzed using a TG kit (YD Diagnostics) based on enzymologic method. Total cholesterol was analyzed using a cholesterol E kit (YD Diagnostics). Low-density lipoprotein (LDL)-cholesterol level was calculated from triglyceride level, total cholesterol level and HDL-cholesterol level according to Equation 1: LDL-cholesterol=total cholesterol−{[…]} Equation 1
Blood was taken from the liver of the SD rats, and lipid levels were analyzed in the same manner as the experiment with the C57BL/6 male mice.

high-fat diet SD rats [4] = experiment: Subcutaneous, perirenal and retroperitoneal fat weight in high-fat diet rats; format: in vivo, rat; conditions: orally administered for 6 weeks, FIG. 7
Description: As described above, 4 week-old SD rats were treated with high-fat diet and 3′-SL for 6 weeks. Then, subcutaneous fat, perirenal fat and retroperitoneal fat were isolated from the rats and weighed.

high-fat diet SD rats [5] = experiment: Improvement of fatty liver in high-fat diet rats (dissection, observation); format: in vivo, rat; conditions: orally administered, FIGS. 8a and 8b
Text: In order to investigate 3′-SL's effect of improving fatty liver, high-fat diet SD rats were dissected and the liver and other organs were observed.

[6] = tested on: high-fat diet C56BL/6 male mice; experiment: Serum lipid and leptin levels in high-fat diet mice; format: in vivo, mouse; conditions: peritoneal injection every day, 50 days; for Leptin: ELISA; for HDL-cholesterol / HDL/TC / LDL/TC / Total cholesterol (TC) / Triglyceride / LDL-cholesterol: serum; for LDL-cholesterol: calculated by Equation 1
Description: as §1
Leptin level was measured using a mouse leptin ELISA kit (Millipore) and a rat leptin ELISA kit (Millipore).

high-fat diet SD rats [7] = experiment: Body weight change, food and water intake of high-fat diet rats; format: in vivo, rat; conditions: orally administered every day, 7 weeks
Description: 4 week-old Sprague-Dawley (SD) rats were purchased from Dooyeul Biotech (Korea). Water was allowed freely and commercially available pellet feed (Dooyeul Biotech, Korea) was given for a week. The rats were grouped into four groups (six per each group) as follows: ND, normal diet group (normal group); HD, high-fat (60% fat) diet [purchased from Research Diets (New Brunswick, USA)] group (control group); and HD+SL (1 mg/kg) and HD+SL (5 mg/kg), high-fat diet groups treated with SL (Sigma). 3′-SL or deionized water (DW) was orally administered every day. The mice were kept in cages for 7 weeks and sacrificed after fasting for 12 hours. Food intake and body weight change were measured every 5 days.

## CC(=O)N[C@H]1[C@H]([C@H](O)[C@H](O)CO)O[C@@](O[C@H]2[C@@H](O)[C@@H](CO)O[C@@H](O[C@H]3[C@H](O)[C@@H](O)C(O)O[C@@H]3CO)[C@@H]2O)(C(=O)O)C[C@@H]1O (stereo partly drawn) [3′-SL, α-NeuNAc-(2→3)-β-D-Gal-(1→4)-D-Glc]
[1]
  fatty liver, fat accumulation in liver and other organs (in words): fat accumulation was not observed in the liver or other organs
[2]; HD + SL 0.1 mg/kg
  Weight increase: 8.94 ± 0.43 g/50 day
[2]; HD + SL 0.1 mg/kg, 50 days
  Final weight: 31.34 ± 1.15 g
[2]; HD + SL 0.5 mg/kg
  Weight increase: 7.52 ± 0.74 g/50 day
[2]; HD + SL 0.5 mg/kg, 50 days
  Final weight: 30.42 ± 0.51 g
[2]; HD + SL 1.0 mg/kg
  Weight increase: 5.60 ± 0.77 g/50 day
[2]; HD + SL 1.0 mg/kg, 50 days
  Final weight: 29.00 ± 0.82 g
[2]; HD + SL 5.0 mg/kg
  Weight increase: 6.68 ± 0.28 g/50 day
[2]; HD + SL 5.0 mg/kg, 50 days
  Final weight: 28.68 ± 0.95 g
[2]; high-fat diet + SL 5 mg/kg peritoneally injected, 50 days, compared to normal diet mice
  Comparison of body weight increase, SL vs. ND: 51.5%
high-fat diet SD rats [3]; compared to the control group
  effect on serum lipid levels (in words): higher HDL-cholesterol level and lower LDL-cholesterol, total cholesterol and triglyceride levels as compared to the control group
high-fat diet SD rats [3]; oral, serum
  HDL-cholesterol: 88.73 ± 1.32
  HDL/total cholesterol: 0.52 ± 0.04
  LDL/total cholesterol: 0.34 ± 0.03
  Total cholesterol: 171.44 ± 12.8
  Triglyceride: 149.00 ± 3.86
high-fat diet SD rats [3]; oral, serum, calculated by Equation 1
  LDL-cholesterol: 57.91 ± 1.39
high-fat diet SD rats [4]
  subcutaneous, perirenal and retroperitoneal fat weight (in words): decreased subcutaneous fat, perirenal fat and retroperitoneal fat in a dose-dependent manner
high-fat diet SD rats [5]
  fatty liver, fat accumulation in liver and other organs (in words): fat accumulation reduced markedly
[6]; HD + SL 0.1 mg/kg
  Leptin: 66.59 ± 43.57 ng/mL
  HDL-cholesterol: 53.27 ± 5.08 mg/dL
  HDL/TC: 0.40 ± 0.04
  LDL/TC: 0.43 ± 0.02
  Total cholesterol (TC): 135.05 ± 13.58 mg/dL
  Triglyceride: 166.78 ± 6.60 mg/dL
  LDL-cholesterol: 58.16 ± 3.74 mg/dL
[6]; HD + SL 0.5 mg/kg
  Leptin: 38.73 ± 5.58 ng/mL
  HDL-cholesterol: 55.74 ± 3.18 mg/dL
  HDL/TC: 0.51 ± 0.02
  LDL/TC: 0.45 ± 0.12
  Total cholesterol (TC): 108.25 ± 3.06 mg/dL
  Triglyceride: 112.99 ± 8.16 mg/dL
  LDL-cholesterol: 48.43 ± 13.91 mg/dL
[6]; HD + SL 1.0 mg/kg
  Leptin: 19.29 ± 14.24 ng/mL
  HDL-cholesterol: 49.29 ± 3.40 mg/dL
  HDL/TC: 0.39 ± 0.01
  LDL/TC: 0.37 ± 0.12
  Total cholesterol (TC): 126.30 ± 7.75 mg/dL
  Triglyceride: 94.28 ± 5.66 mg/dL
  LDL-cholesterol: 46.03 ± 13.79 mg/dL
[6]; HD + SL 5.0 mg/kg
  Leptin: 6.64 ± 2.93 ng/mL
  HDL-cholesterol: 48.97 ± 1.62 mg/dL
  HDL/TC: 0.44 ± 0.05
  LDL/TC: 0.27 ± 0.04
  Total cholesterol (TC): 112.97 ± 12.54 mg/dL
  Triglyceride: 89.78 ± 4.31 mg/dL
  LDL-cholesterol: 29.91 ± 2.69 mg/dL
high-fat diet SD rats [7]; HD + SL 1.0 mg/kg
  Final weight: 454.17 ± 10.37 g
  Weight increase: 4.05 ± 0.16 g/day
high-fat diet SD rats [7]; HD + SL 5.0 mg/kg
  Final weight: 443.33 ± 19.56 g
  Weight increase: 3.66 ± 0.32 g/day
